This is an account of results in patent publication US20230295109A1, “PYRIDINONE COMPOUNDS FOR THE TREATMENT OF AUTOIMMUNE DISEASE” (F. Hoffmann-La Roche AG, priority 2020, published 2023).

The target of one assay is T1, TLR9 (Homo sapiens, UniProt Q9NR96).
T1 sequence (Q9NR96 26-1032): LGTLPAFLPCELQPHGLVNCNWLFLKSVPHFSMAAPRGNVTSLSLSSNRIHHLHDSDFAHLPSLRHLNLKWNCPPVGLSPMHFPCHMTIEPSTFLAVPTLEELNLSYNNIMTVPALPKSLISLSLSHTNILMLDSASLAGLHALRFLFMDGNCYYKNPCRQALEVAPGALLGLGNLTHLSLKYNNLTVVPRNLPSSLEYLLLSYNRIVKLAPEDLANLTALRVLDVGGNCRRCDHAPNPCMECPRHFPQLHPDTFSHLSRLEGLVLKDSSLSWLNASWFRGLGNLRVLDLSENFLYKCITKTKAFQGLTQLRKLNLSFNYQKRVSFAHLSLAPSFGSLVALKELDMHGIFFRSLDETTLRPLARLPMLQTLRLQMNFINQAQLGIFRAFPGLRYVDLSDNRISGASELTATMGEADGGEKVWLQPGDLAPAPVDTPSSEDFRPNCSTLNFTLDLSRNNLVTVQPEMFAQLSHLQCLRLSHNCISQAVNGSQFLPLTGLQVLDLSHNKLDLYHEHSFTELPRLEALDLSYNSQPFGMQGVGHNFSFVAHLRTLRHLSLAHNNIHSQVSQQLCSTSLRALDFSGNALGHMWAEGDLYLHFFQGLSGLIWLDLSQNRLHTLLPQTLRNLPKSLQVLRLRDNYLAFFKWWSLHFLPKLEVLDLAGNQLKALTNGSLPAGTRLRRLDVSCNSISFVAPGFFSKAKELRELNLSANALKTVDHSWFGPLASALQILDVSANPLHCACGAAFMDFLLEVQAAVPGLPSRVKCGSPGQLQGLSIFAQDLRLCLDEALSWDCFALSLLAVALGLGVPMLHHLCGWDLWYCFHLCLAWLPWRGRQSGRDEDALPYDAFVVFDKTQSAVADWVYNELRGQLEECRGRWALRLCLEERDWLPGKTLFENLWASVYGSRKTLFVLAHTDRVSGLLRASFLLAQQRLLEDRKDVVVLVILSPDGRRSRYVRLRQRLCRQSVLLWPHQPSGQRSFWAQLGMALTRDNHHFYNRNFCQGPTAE
The experiment in a line: Human PBMC cell-based assay, TLR9 (CpG ODN 2216). Further details: These cells express TLR7, TLR8, or TLR9, and therefore are natural responders to respective ligand stimulation; endogenous in cells; host or cells: primary human PBMC from healthy donor whole blood. As to conditions: CpG ODN 2216 at 1 µM, overnight, cytokine levels, read-out: hPBMC/TLR9 IC50. The source says: (§1) Unlike the HEK reporter cell lines, human peripheral blood mononuclear cell (PBMC) represents primary human immune cells in blood mainly consisting of lymphocytes, monocytes, and dendritic cells. These cells express TLR7, TLR8, or TLR9, and therefore are natural responders to respective ligand stimulation. Upon activation of these TLRs, PBMCs secrete similar cytokines and chemokines in vitro and in vivo, and therefore the in vitro potency of a TLR7/8/9 antagonist in human PBMC is readily translatable to its pharmacodynamics response in vivo.
(§2) Human peripheral blood mononuclear cells (PBMC) were isolated from freshly-drawn lithium-heparinized (Lithium Heparin Plus blood Collection tube, BD Vacutainer®) healthy donor whole blood by density gradient (Ficoll-PaqueTM PLUS, GE Healthcare life Sciences). Briefly, […] was diluted with 25 mL PBS (without Ca^2+, Mg^2+) in a 50 mL conical tube with porous barrier (Leucosep tube, Greiner bio-one), where 15.5 mL Ficoll-Paque was under laid after spinning. Tubes were centrifuged for 20 minutes at 800×g (1946 rpm) with the brake in the off position, and PBMC were collected from the buffy coat. Cells were then washed twice in PBS, and red blood cells were lysed by suspension in 2 mL (Red Blood Cell Lysis Buffer, Alfa Aesar) for 5-10 minutes at room temperature. After a final wash in PBS, PBMC were resuspended at a final concentration of 2×10^6 cells/mL in RPMI-1640 media with GlutaMAXTM (Gibco) supplemented with 10% Fetal Bovine Serum (Sigma) and plated at 150µL/well (3×10^5 cells/well) in tissue culture treated round bottom 96-well plates (Corning Incorporated). Antagonist compounds (compounds of this invention) solubilized and serial diluted in 100% DMSO were added in duplicate to cells to yield a final concentration of 1% DMSO (v/v). PBMC were incubated with antagonist compounds for 30 minutes at 37° C., 5% CO2 before adding various TLR agonist reagents in 48 µL complete media per well as follows (final concentrations indicated): CpG ODN 2216 (InvivoGen) at 1 µM for TLR9, ORN 06/LyoVec (InvivoGen) at 1 µg/mL for TLR8 and R848 (InvivoGen) at 1 µg/mL for TLR7 and TLR8. PBMC were incubated overnight at 37° C. with 5% CO2. Cell culture supernatants were collected, and levels of various human cytokines were assessed by Luminex assay (ProcartaPlexTM Multiplex Immunoassay, Invitrogen) or ELISA procedure according to the manufacturer’s recommended protocol (eBioscience, ThermoFisher Scientific). Viability of the cells was also checked with Cell Viability Assay (CellTiter Glo®Luminescent Cell Viability Assay, Promega).

A further assay relates to TLR7 and TLR8. The experiment in a line: Human PBMC cell-based assay, TLR7 and TLR8 (R848). As to conditions: R848 at 1 µg/mL, overnight, cytokine levels, read-out: hPBMC/TLR78 IC50.
Excerpt: as §1, §2

In the case of `CCc1nc(N2CCN(Cc3ccc(N4CC5(CNCCO5)C4)nc3)CC2)ccc1-c1cc(C)c(=O)n(C)c1` [Example 2, 5-[2-ethyl-6-[4-[[6-(5-oxa-2,8-diazaspiro[3.5]nonan-2-yl)-3 pyridyl]methyl]piperazin-1-yl]-3-pyridyl]-1,3-dimethyl-pyridin-2-one], the IC50 was 362 nM on TLR9; 7 nM in the assay on TLR7 and TLR8. Consider `Cc1cc(-c2ccc(N3CCN(Cc4cnc(N5CC6(CNCCO6)C5)nc4)CC3)nc2C(C)C)cn(C)c1=O` [Example 6, 5-[2-isopropyl-6-[4-[[2-(5-oxa-2,8-diazaspiro[3.5]nonan-2-yl)pyrimidin-5-yl]methyl]piperazin-1-yl]-3-pyridyl]-1,3-dimethyl-pyridin-2-one], for which, on TLR9, the IC50 worked out at 730 nM.

In the case of `CCc1nc(N2CCN(Cc3cnc(N4CC(C)(N)C4)nc3)CC2)ccc1-c1cc(C)c(=O)n(C)c1` [Example 3, 5-[6-[4-[[2-(3-amino-3-methyl-azetidin-1-yl)pyrimidin-5-yl]methyl]piperazin-1-yl]-2-ethyl-3-pyridyl]-1,3-dimethyl-pyridin-2-one], the IC50 stood at 377 nM on TLR9; 21 nM in the assay with TLR7 and TLR8. For the molecule `Cc1cc(-c2ccc(N3CCN(Cc4ncc(N5CCNCC5)cn4)CC3)nc2C(C)C)cn(C)c1=O` [Example 12, 5-[2-isopropyl-6-[4-[(5-piperazin-1-ylpyrimidin-2-yl)methyl]piperazin-1-yl]-3-pyridyl]-1,3-dimethyl-pyridin-2-one], the IC50 was found to be 115 nM at TLR9; 12 nM in the assay with TLR7 and TLR8. Regarding `Cc1cc(-c2ccc(N3CCN(Cc4ccc(N5CCNCC5)cn4)CC3)nc2C(C)C)cn(C)c1=O` [Example 7, 5-[2-isopropyl-6-[4-[(5-piperazin-1-yl-2-pyridyl)methyl]piperazin-1-yl]-3-pyridyl]-1,3-dimethyl-pyridin-2-one], at TLR9, the IC50 is 101 nM. On to `Cc1cc(-c2ccc(N3CCC(N4CCNCC4)CC3)nc2C(C)C)cn(C)c1=O` [Example 18, 5-[2-isopropyl-6-(4-piperazin-1-yl-1-piperidyl)-3-pyridyl]-1,3-dimethyl-pyridin-2-one], for which the IC50 at TLR9 amounted to 700 nM. Regarding `CCc1nc(N2CCN(Cc3cnc(N4CC5(CNCCO5)C4)nc3)CC2)ccc1-c1cc(C)c(=O)n(C)c1` [Example 1, 5-[2-ethyl-6-[4-[[2-(5-oxa-2,8-diazaspiro[3.5]nonan-2-yl)pyrimidin-5-yl]methyl]piperazin-1-yl]-3-pyridyl]-1,3-dimethyl-pyridin-2-one], on TLR9, the IC50 stood at 388 nM. For `Cc1cc(-c2ccc(N3CCN4CCN(c5ccc(N6CCNCC6)nc5)CC4C3)nc2C(C)C)cn(C)c1=O` (centres unmarked) [Example 16, 5-[2-isopropyl-6-[8-(6-piperazin-1-yl-3-pyridyl)-3,4,6,7,9,9a-hexahydro-1H-pyrazino[1,2-a]pyrazin-2-yl]-3-pyridyl]-1,3-dimethyl-pyridin-2-one], the IC50 came to 263 nM on TLR9; 2 nM in the assay with TLR7 and TLR8. For `Cc1cc(-c2ccc(N3CCN(Cc4cnc(N5CCNCC5)nc4)CC3)nc2C(C)C)cn(C)c1=O` [Example 9, 5-[2-isopropyl-6-[4-[(2-piperazin-1-ylpyrimidin-5-yl)methyl]piperazin-1-yl]-3-pyridyl]-1,3-dimethyl-pyridin-2-one], the IC50 on TLR9 is 47 nM; in the assay with TLR7 and TLR8, 0.4 nM.
